Results as given in ChEMBL document CHEMBL6153154, “Novel Carbocyclic Phenylpyrrolidinone Urea Compounds as FPR2 Agonists for Treating Atherosclerosis and Heart Failure” (ACS Med Chem Lett, 2025).
pEC50: −log10 of the molar value.

target: T1, N-formyl peptide receptor 2 (Homo sapiens, UniProt P25090); experiment: Agonist activity at human FPR2 expressed in CHO cells assessed as forskolin-induced cAMP level incubated for 30 mins in presence of IBMX by HTRF HiRange cAMP assay; assay type: functional, cell-based
T1 sequence (P25090 whole entry): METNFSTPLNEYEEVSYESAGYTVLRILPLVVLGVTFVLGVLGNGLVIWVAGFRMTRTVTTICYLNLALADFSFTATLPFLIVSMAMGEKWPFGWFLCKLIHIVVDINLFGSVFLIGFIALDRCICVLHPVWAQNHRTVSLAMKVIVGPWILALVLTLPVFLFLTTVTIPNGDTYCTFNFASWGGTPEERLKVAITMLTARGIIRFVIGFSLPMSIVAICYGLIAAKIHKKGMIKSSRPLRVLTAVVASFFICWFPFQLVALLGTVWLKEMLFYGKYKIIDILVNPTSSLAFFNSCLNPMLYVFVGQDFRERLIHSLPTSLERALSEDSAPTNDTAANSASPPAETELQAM

SMILES | pEC50
CC(=O)N(C)CC1(c2ccc(N3CC[C@@H](NC(=O)Nc4ccc(C(F)(F)F)cc4F)C3=O)c(F)c2F)CC1 | 10.00
O=C(Nc1ccc(C(F)(F)F)cc1F)N[C@@H]1CCN(c2ccc(C3(CN4CCCC4=O)CC3)c(F)c2F)C1=O | 9.64
CP(C)(=O)CC1(c2ccc(N3CC[C@@H](NC(=O)Nc4ccc(C(F)(F)F)cc4F)C3=O)c(F)c2F)CCCC1 | 9.32

Now from value to compound:

pEC50 | SMILES
9.39 | CC(=O)NCC1(c2ccc(N3CC[C@@H](NC(=O)Nc4ccc(Cl)cc4F)C3=O)c(F)c2F)CC1
9.31 | CC(C)S(=O)(=O)CC1(c2ccc(N3CC[C@@H](NC(=O)Nc4ccc(Cl)cc4F)C3=O)c(F)c2F)CC1
9.49 | O=C(Nc1ccc(Cl)cc1F)N[C@@H]1CCN(c2ccc(C3(CN4CCCC4=O)CC3)c(F)c2F)C1=O
